Experimental data: PMC8118680 (Chemistry of Heterocyclic Compounds, 2021)

Tests used:
[1] = test system: influenza virus strain A/Puerto Rico/8/34 (H1N1); assay type: cell-based; details: result in words; for activity against influenza virus strain A/Puerto Rico/8/34 (H1N1): MDCK cells
[2] = test system: MDCK cells; assay: Cytotoxicity in MDCK cells, MTT assay; assay type: cell-based; details: result in words

Structure (SMILES)	activity against influenza virus strain A/Puerto Rico/8/34 (H1N1) [1]	cytotoxicity [2]	SI relative to the reference drug rimantadine ([1]; influenza A H1N1 in MDCK cells)
Cc1cc(C)nc(NNC(=O)Cn2nnc(-c3ccccc3)n2)n1 [Compound 7b, N '-(4,6-Dimethylpyrimidin-2-yl)-2-(5-phenyl-2 H -tetrazol-2-yl)acetohydrazide]	did not show activity		
c1ccc(-n2nnnc2Sc2ncccn2)cc1 [Compound 12a, 2-[(1-Phenyl-1 H -tetrazol-5-yl)sulfanyl]pyrimidine]	did not show activity		
O=C(Cn1nnc(-c2ccccc2)n1)NNc1ncccn1 [Compound 7a, N '-(Pyrimidin-2-yl)-2-(5-phenyl-2 H -tetrazol-2-yl)acetohydrazide]	did not show activity		
Cc1cc(C)nc(Sc2nnnn2CC(=O)O)n1 [Compound 12b, {5-[(4,6-Dimethylpyrimidin-2-yl)sulfanyl]-1 H -tetrazol-1-yl}acetic acid]		significantly lower cytotoxicity	twice
